Data on 38 compounds can be found in patent US20260167632A1, “NICOTINAMIDE DERIVATIVES FOR USE IN TREATING DISORDERS ASSOCIATED WITH KCNK13 ACTIVITY” (Cerevance, Inc., priority 2022, published 2026).

One may read the pIC50 as the negative decadic logarithm of the IC50, by convention in mol/L.

pIC50: −log10 of the molar value.

The assay deals with T1, human KCNK13 (Homo sapiens, UniProt Q9HB14).
T1 construct: expressed in transfected cells
T1 sequence (Q9HB14 1-408): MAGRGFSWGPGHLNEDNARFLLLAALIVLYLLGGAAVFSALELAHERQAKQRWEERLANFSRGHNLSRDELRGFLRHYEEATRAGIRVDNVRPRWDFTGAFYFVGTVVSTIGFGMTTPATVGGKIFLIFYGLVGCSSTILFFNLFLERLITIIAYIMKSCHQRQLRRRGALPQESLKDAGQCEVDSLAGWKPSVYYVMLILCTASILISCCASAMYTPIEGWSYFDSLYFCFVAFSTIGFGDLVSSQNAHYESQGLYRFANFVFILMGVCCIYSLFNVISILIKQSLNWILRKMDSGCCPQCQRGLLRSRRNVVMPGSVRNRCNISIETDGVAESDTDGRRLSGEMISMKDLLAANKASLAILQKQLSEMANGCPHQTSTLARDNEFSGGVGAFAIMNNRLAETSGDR
The assay can be described thus: KCNK13 antagonist activity, thallium flux FLIPR assay in HEK 293 cells stably expressing human KCNK13. Type of assay: cell-based. The note with it: HEK 293 cells stably expressing human KCNK13, Tl+ sensitive dye, compound 15 min before thallium sulfate, ten point curves; read-out: hKCNK13 IC50. The procedure:
4. Biological Efficacy of Compounds of the Invention
KCNK13 antagonist activity was determined by measuring changes in intracellular Thallium (Tl^+) concentrations using a Tl^+ sensitive fluorescent dye. The changes in fluorescent signal were monitored by Fluorescent Imaging Plate Reader (FLIPR™) technology available from Molecular Devices, LLC, US. KCNK13 mediated increases in intracellular Tl^+ concentration were readily detected by addition of a thallium sulfate Stimulus. 24 hours prior to the assay, human embryonic kidney 293 cells (HEK 293 cells) stably expressing human KCNK13 were seeded in cell culture medium in PDL coated black, clear-bottom 384-well plates (commercially available from Corning Inc., 356663) and grown overnight at 37° C., […]. On the day of the assay, cell culture media was removed and cells were loaded with potassium dye (commercially sold by Molecular Devices, LLC, US, R8222) for 1 hour at room temperature in the dark. Test compounds (at 10 point half log concentration response curves from 100 µM) were added to cells for 15 minutes prior to the addition of thallium sulfate to all wells. The IC50 values were determined from ten point concentration response curves. Curves were generated using the average of two wells for each data point.
Consider `COc1ncc(Cl)cc1C(=O)N(C)C(C)c1ccc(F)cc1C#N` (single isomer, unassigned) [Example 67, 5-chloro-N-(1-(2-cyano-4-fluorophenyl)ethyl)-2-methoxy-N-methylnicotinamide], for which the pIC50 is no less than 6.30.

With `COc1ncc(F)cc1C(=O)N(C)C(C)c1ccc(F)cc1F` (single isomer, unassigned) [Example 68, N-(1-(2,4-difluorophenyl)ethyl)-5-fluoro-2-methoxy-N-methylnicotinamide], the pIC50 is no less than 5.30.

With `COc1ncc(F)cc1C(=O)N(C)C(C)c1ccc(F)cc1F` (single isomer, unassigned) [Example 69, N-(1-(2,4-difluorophenyl)ethyl)-5-fluoro-2-methoxy-N-methylnicotinamide], the pIC50 was no less than 6.70. Next, `CC(c1ccccc1F)N(C)C(=O)c1cc(F)cnc1OC(F)F` (single isomer, unassigned) [Example 70, 2-(difluoromethoxy)-5-fluoro-N-(1-(2-fluorophenyl)ethyl)-N-methylnicotinamide]: no less than 6.70; `CC(c1ccccc1F)N(C)C(=O)c1cc(F)cnc1OC(F)F` (single isomer, unassigned) [Example 71, 2-(difluoromethoxy)-5-fluoro-N-(1-(2-fluorophenyl)ethyl)-N-methylnicotinamide]: no less than 7.00; `CC(c1cccc(F)c1)N(C)C(=O)c1cc(Cl)cnc1OC(F)F` (single isomer, unassigned) [Example 86, 5-chloro-2-(difluoromethoxy)-N-(1-(3-fluorophenyl)ethyl)-N-methylnicotinamide]: no less than 7.00. Next, `CC(c1cccc(F)c1)N(C)C(=O)c1cc(Cl)cnc1OC(F)F` (single isomer, unassigned) [Example 87, 5-chloro-2-(difluoromethoxy)-N-(1-(3-fluorophenyl)ethyl)-N-methylnicotinamide]: no less than 6.70; `CC(c1cccc(F)c1)N(C)C(=O)c1cc(F)cnc1OC(F)F` (single isomer, unassigned) [Example 88, 2-(difluoromethoxy)-5-fluoro-N-(1-(3-fluorophenyl)ethyl)-N-methylnicotinamide]: no less than 7.00; `CC(c1cccc(F)c1)N(C)C(=O)c1cc(F)cnc1OC(F)F` (single isomer, unassigned) [Example 89, 2-(difluoromethoxy)-5-fluoro-N-(1-(3-fluorophenyl)ethyl)-N-methylnicotinamide]: no less than 6.70.

As to `COc1ncc(Cl)cc1C(=O)N(C)Cc1ccccc1` [Example 1, N-benzyl-5-chloro-2-methoxy-N-methylnicotinamide], the negative-log IC50 (pIC50) was no less than 7.00. As for `COc1ncc(Cl)cc1C(=O)N(C)C1CCc2ccc(C#N)cc21` (centres unmarked) [Example 2, 5-chloro-N-(6-cyano-2,3-dihydro-1H-inden-1-yl)-2-methoxy-N-methylnicotinamide], the pIC50 is no less than 6.00. Next, `COc1ncc(Cl)cc1C(=O)N(C)C1CCc2cccc(C#N)c21` (centres unmarked) [Example 3, 5-chloro-N-(7-cyano-2,3-dihydro-1H-inden-1-yl)-2-methoxy-N-methylnicotinamide]: no less than 6.30; `COc1ncc(F)cc1C(=O)N1CCCCC1c1cccc(F)c1` (centres unmarked) [Example 4, (5-fluoro-2-methoxypyridin-3-yl)(2-(3-fluorophenyl)piperidin-1-yl)methanone]: no less than 6.00; `COc1nc(C)ccc1C(=O)N(C)Cc1ccc(F)cc1F` [Example 11, N-(2,4-difluorobenzyl)-2-methoxy-N,6-dimethylnicotinamide]: no less than 6.00.

On to `COc1ncccc1C(=O)N(C)Cc1cccc(F)c1` [Example 32, N-(3-fluorobenzyl)-2-methoxy-N-methylnicotinamide], for which the pIC50 is no less than 6.00. On to `COc1ncccc1C(=O)N(C)Cc1ccccc1F` [Example 33, N-(2-fluorobenzyl)-2-methoxy-N-methylnicotinamide], for which the pIC50 is no less than 6.30. Under `COc1ncc(F)cc1C(=O)N(C)C1(c2cccc(F)c2)CC1` [Example 34, 5-fluoro-N-(1-(3-fluorophenyl)cyclopropyl)-2-methoxy-N-methylnicotinamide] stands no less than 6.30; under `COc1ncc(F)cc1C(=O)N(C)C1COc2ccc(F)cc21` (centres unmarked) [Example 35, 5-fluoro-N-(5-fluoro-2,3-dihydrobenzofuran-3-yl)-2-methoxy-N-methylnicotinamide], no less than 6.30; under `COc1ncc(F)cc1C(=O)N(C)Cc1ccccc1C#N` [Example 36, N-(2-cyanobenzyl)-5-fluoro-2-methoxy-N-methylnicotinamide], no less than 6.30. Under `COc1ncc(F)cc1C(=O)N(C)Cc1ccccc1F` [Example 37, 5-fluoro-N-(2-fluorobenzyl)-2-methoxy-N-methylnicotinamide] stands no less than 6.70; under `COc1ncc(F)cc1C(=O)N(C)Cc1cccc(F)c1F` [Example 38, N-(2,3-difluorobenzyl)-5-fluoro-2-methoxy-N-methylnicotinamide], no less than 6.30. As to `COc1ncc(Cl)cc1C(=O)N(C)Cc1cccc(F)c1F` [Example 40, 5-chloro-N-(2,3-difluorobenzyl)-2-methoxy-N-methylnicotinamide], the pIC50 is no less than 6.70. For the compound `COc1ncc(Cl)cc1C(=O)N(C)Cc1cc(F)cc(F)c1` [Example 41, 5-chloro-N-(3,5-difluorobenzyl)-2-methoxy-N-methylnicotinamide], the pIC50 was no less than 6.70. As for `COc1ncc(F)cc1C(=O)N(C)C1COc2cc(F)ccc21` (centres unmarked) [Example 42, 5-fluoro-N-(6-fluoro-2,3-dihydrobenzofuran-3-yl)-2-methoxy-N-methylnicotinamide], the pIC50 is no less than 6.00.

As for `COc1ncc(Cl)cc1C(=O)N(C)C1CCOc2cc(F)ccc21` (centres unmarked) [Example 43, 5-chloro-N-(7-fluorochroman-4-yl)-2-methoxy-N-methylnicotinamide], the pIC50 was no less than 6.00.

Consider `COc1ncc(Cl)cc1C(=O)N(C)Cc1cc(F)cc(Cl)c1` [Example 44, 5-chloro-N-(3-chloro-5-fluorobenzyl)-2-methoxy-N-methylnicotinamide], for which the pIC50 is no less than 6.70. Turning to `CCN(Cc1ccccc1)C(=O)c1cc(Cl)cnc1OC` [Example 47, N-benzyl-5-chloro-N-ethyl-2-methoxynicotinamide], the pIC50 is no less than 6.00. Under `CCN(Cc1ccccc1F)C(=O)c1cc(Cl)cnc1OC` [Example 48, 5-chloro-N-ethyl-N-(2-fluorobenzyl)-2-methoxynicotinamide] stands no less than 6.30; under `CCN(Cc1cccc(F)c1)C(=O)c1cc(Cl)cnc1OC` [Example 49, 5-chloro-N-ethyl-N-(3-fluorobenzyl)-2-methoxynicotinamide], no less than 6.00; under `COc1ncc(F)cc1C(=O)N(C)Cc1cccc(F)c1` [Example 50, 5-fluoro-N-(3-fluorobenzyl)-2-methoxy-N-methylnicotinamide], no less than 6.70. As for `COc1ncc(C)cc1S(=O)(=O)N1CCc2ccccc2C1` [Example 51, 2-((2-methoxy-5-methylpyridin-3-yl)sulfonyl)-1,2,3,4-tetrahydroisoquinoline], the pIC50 is no less than 6.70.

On to `COc1ncc(Cl)cc1S(=O)(=O)N1CCc2ccccc2C1` [Example 52, 2-((5-chloro-2-methoxypyridin-3-yl)sulfonyl)-1,2,3,4-tetrahydroisoquinoline], for which the pIC50 was no less than 6.70. With `COc1ncc(C)cc1S(=O)(=O)N1CCOc2ccc(F)cc2C1` [Example 53, 7-fluoro-4-((2-methoxy-5-methylpyridin-3-yl)sulfonyl)-2,3,4,5-tetrahydrobenzo[f][1,4]oxazepine], the pIC50 was no less than 6.30. Next, `COc1ncc(Cl)cc1S(=O)(=O)N1CCOc2ccc(F)cc2C1` [Example 54, 4-((5-chloro-2-methoxypyridin-3-yl)sulfonyl)-7-fluoro-2,3,4,5-tetrahydrobenzo[f][1,4]oxazepine]: no less than 6.30. Next, `COc1ncccc1S(=O)(=O)N1CCOc2ccc(F)cc2C1` [Example 55, 7-fluoro-4-((2-methoxypyridin-3-yl)sulfonyl)-2,3,4,5-tetrahydrobenzo[f][1,4]oxazepine]: no less than 6.30; `COC(=O)c1ccc(F)cc1CN(C)C(=O)c1cc(F)cnc1OC` [Example 56, methyl 4-fluoro-2-((5-fluoro-2-methoxy-N-methylnicotinamido)methyl)benzoate]: no less than 6.30; `COc1ncc(Cl)cc1C(=O)N(C)Cc1ccc(F)cc1C(F)(F)F` [Example 57, 5-chloro-N-(4-fluoro-2-(trifluoromethyl)benzyl)-2-methoxy-N-methylnicotinamide]: no less than 6.00.

Take `COc1ncc(Cl)cc1C(=O)N(C)Cc1ccc(F)cc1C#N` [Example 58, 5-chloro-N-(2-cyano-4-fluorobenzyl)-2-methoxy-N-methylnicotinamide]: the pIC50 is no less than 6.70.
